Laboratory results reported in ChEMBL document CHEMBL3400005, “Thermodynamic equilibrium solubility measurements in simulated fluids by 96-well plate method in early drug discovery” (Bioorg Med Chem Lett, 2015).
In brackets after ≈: the same amount, converted by molar mass.

How the values were obtained:
[1] = buffer, 4 h
[2] = buffer, pH 7.4, 4 h
[3] = buffer, 24 h
[4] = buffer, pH 7.4, 24 h
[5] = physchem; details: pH 1.2
[6] = physchem; details: pH 6.8
[7] = physchem; details: pH 1.2; remark: listed apart in the source
[8] = physchem; details: pH 6.8; remark: listed apart in the source
[9] = physchem
[10] = physchem; details: pH 7.4
[11] = physchem; remark: listed apart in the source
[12] = physchem; details: pH 7.4; remark: listed apart in the source
[13] = physchem; remark: listed apart in the source
[14] = simulated gi fluid, pH 1.2, 4 h
[15] = simulated gi fluid, pH 6.8, 4 h
[16] = simulated gi fluid, pH 1.2, 24 h
[17] = simulated gi fluid, pH 6.8, 24 h

## CC(=O)Nc1ccc(O)cc1 [ACETAMINOPHEN]
[1]
  -log(solubility): 2.7
[2]
  -log(solubility): 3
[3]
  -log(solubility): 2.87
[4]
  -log(solubility): 2.93
[5]; simulated gastric fluid
  solubility thermodynamic at 4 h: 1000 µM (≈ 151 µg/mL)
[6]; simulated intestinal fluid
  solubility thermodynamic at 4 h: 3.31 µM (≈ 0.501 µg/mL)
[7]; simulated gastric fluid
  solubility thermodynamic at 24 h: 1230 µM (≈ 186 µg/mL)
[8]; simulated intestinal fluid
  solubility thermodynamic at 24 h: 3.31 µM (≈ 0.501 µg/mL)

## C[C@@H]1[C@H](O)[C@@H](C)/C=C/C=C/C=C/C=C/C=C/C=C/C=C/[C@H](O[C@@H]2O[C@H](C)[C@@H](O)[C@H](N)[C@@H]2O)C[C@@H]2O[C@](O)(C[C@@H](O)C[C@@H](O)[C@H](O)CC[C@@H](O)C[C@@H](O)CC(=O)O[C@H]1C)C[C@H](O)[C@H]2C(=O)O [AMPHOTERICIN B]
[9]; water
  solubility thermodynamic at 4 h: 21.9 µM (≈ 20.2 µg/mL)
[10]; PBS
  solubility thermodynamic at 4 h: 21.9 µM (≈ 20.2 µg/mL)
[5]; simulated gastric fluid
  solubility thermodynamic at 4 h: 13.5 µM (≈ 12.5 µg/mL)
[6]; simulated intestinal fluid
  solubility thermodynamic at 4 h: 4.37 µM (≈ 4.03 µg/mL)
[11]; water
  solubility thermodynamic at 24 h: 22.9 µM (≈ 21.2 µg/mL)
[12]; PBS
  solubility thermodynamic at 24 h: 26.3 µM (≈ 24.3 µg/mL)
[7]; simulated gastric fluid
  solubility thermodynamic at 24 h: 11.2 µM (≈ 10.4 µg/mL)
[8]; simulated intestinal fluid
  solubility thermodynamic at 24 h: 3.8 µM (≈ 3.51 µg/mL)
[13]
  solubility thermodynamic: 81.3 µM (≈ 75.1 µg/mL)

## CCCC1O[C@@H]2C[C@H]3[C@@H]4CCC5=CC(=O)C=C[C@]5(C)[C@H]4[C@@H](O)C[C@]3(C)[C@]2(C(=O)CO)O1 (stereo partly drawn) [BUDESONIDE]
[1]
  -log(solubility): 5.03
[2]
  -log(solubility): 5.03
[14]
  -log(solubility): 5.03
[15]
  -log(solubility): 5.03
[3]
  -log(solubility): 5.23
[4]
  -log(solubility): 5.27
[16]
  -log(solubility): 5.07
[17]
  -log(solubility): 5.24
other
  -log(solubility): 5.33
  solubility: 28 µg/mL (≈ 65 µM)

## NC(=O)N1c2ccccc2C=Cc2ccccc21 [CARBAMAZEPINE]
[1]
  -log(solubility): 4.07
[2]
  -log(solubility): 4.47
[14]
  -log(solubility): 4.07
[15]
  -log(solubility): 4.28
[3]
  -log(solubility): 4.4
[4]
  -log(solubility): 4.48
[16]
  -log(solubility): 4.34
[17]
  -log(solubility): 4.85
other
  -log(solubility): 4.29
  solubility: 170 µg/mL (≈ 720 µM)

## COc1cc2c(c(OC)c1OC)-c1ccc(OC)c(=O)cc1[C@@H](NC(C)=O)CC2 [COLCHICINE]
[1]
  -log(solubility): 3.43
[2]
  -log(solubility): 3.7
[5]; simulated gastric fluid
  solubility thermodynamic at 4 h: 50.1 µM (≈ 20 µg/mL)
[6]; simulated intestinal fluid
  solubility thermodynamic at 4 h: 200 µM (≈ 79.7 µg/mL)

## COc1cc(/C=C/C(=O)CC(=O)/C=C/c2ccc(O)c(OC)c2)ccc1O [CURCUMIN]
other
  -log(solubility): 6.78
[9]; water
  solubility thermodynamic at 4 h: 1.35 µM (≈ 0.497 µg/mL)
[10]; PBS
  solubility thermodynamic at 4 h: 1.35 µM (≈ 0.497 µg/mL)
[5]; simulated gastric fluid
  solubility thermodynamic at 4 h: 1.35 µM (≈ 0.497 µg/mL)
[6]; simulated intestinal fluid
  solubility thermodynamic at 4 h: 1.35 µM (≈ 0.497 µg/mL)

## CC1(C)[C@@H](O)CC[C@]2(C)[C@H]3C(=O)C=C4[C@@H]5C[C@@](C)(C(=O)O)CC[C@]5(C)CC[C@@]4(C)[C@]3(C)CC[C@@H]12 [ENOXOLONE]
[1]
  -log(solubility): 5.97
[2]
  -log(solubility): 5.67
[5]; simulated gastric fluid
  solubility thermodynamic at 4 h: 1.07 µM (≈ 0.504 µg/mL)
[6]; simulated intestinal fluid
  solubility thermodynamic at 4 h: 1.07 µM (≈ 0.504 µg/mL)

## OC(Cn1cncn1)(Cn1cncn1)c1ccc(F)cc1F [FLUCONAZOLE]
[9]; water
  solubility thermodynamic at 4 h: 0.324 µM (≈ 0.0991 µg/mL)
[10]; PBS
  solubility thermodynamic at 4 h: 0.324 µM (≈ 0.0991 µg/mL)
[5]; simulated gastric fluid
  solubility thermodynamic at 4 h: 1.62 µM (≈ 0.497 µg/mL)
[6]; simulated intestinal fluid
  solubility thermodynamic at 4 h: 0.324 µM (≈ 0.0991 µg/mL)
[11]; water
  solubility thermodynamic at 24 h: 0.537 µM (≈ 0.164 µg/mL)
[12]; PBS
  solubility thermodynamic at 24 h: 0.468 µM (≈ 0.143 µg/mL)
[7]; simulated gastric fluid
  solubility thermodynamic at 24 h: 0.851 µM (≈ 0.261 µg/mL)
[8]; simulated intestinal fluid
  solubility thermodynamic at 24 h: 0.891 µM (≈ 0.273 µg/mL)
[13]
  solubility thermodynamic: 0.331 µM (≈ 0.101 µg/mL)

## CCC(=O)O[C@]1(C(=O)SCF)[C@H](C)C[C@H]2[C@@H]3C[C@H](F)C4=CC(=O)C=C[C@]4(C)[C@@]3(F)[C@@H](O)C[C@@]21C [FLUTICASONE PROPIONATE]
[9]; water
  solubility thermodynamic at 4 h: 0.2 µM (≈ 0.0999 µg/mL)
[10]; PBS
  solubility thermodynamic at 4 h: 0.2 µM (≈ 0.0999 µg/mL)
[5]; simulated gastric fluid
  solubility thermodynamic at 4 h: 1 µM (≈ 0.501 µg/mL)
[6]; simulated intestinal fluid
  solubility thermodynamic at 4 h: 1 µM (≈ 0.501 µg/mL)
[11]; water
  solubility thermodynamic at 24 h: 0.0195 µM (≈ 0.00976 µg/mL)
[12]; PBS
  solubility thermodynamic at 24 h: 0.01 µM (≈ 0.00501 µg/mL)
[7]; simulated gastric fluid
  solubility thermodynamic at 24 h: 0.2 µM (≈ 0.0999 µg/mL)
[8]; simulated intestinal fluid
  solubility thermodynamic at 24 h: 0.407 µM (≈ 0.204 µg/mL)
[13]
  solubility thermodynamic: 0.102 µM (≈ 0.0512 µg/mL)

## COc1c2occc2c(OC)c2c(=O)cc(C)oc12 [KHELLIN]
[9]; water
  solubility thermodynamic at 4 h: 77.6 µM (≈ 20.2 µg/mL)
[10]; PBS
  solubility thermodynamic at 4 h: 77.6 µM (≈ 20.2 µg/mL)
[5]; simulated gastric fluid
  solubility thermodynamic at 4 h: 30.9 µM (≈ 8.04 µg/mL)
[6]; simulated intestinal fluid
  solubility thermodynamic at 4 h: 30.9 µM (≈ 8.04 µg/mL)
[11]; water
  solubility thermodynamic at 24 h: 100 µM (≈ 26 µg/mL)
[12]; PBS
  solubility thermodynamic at 24 h: 72.4 µM (≈ 18.9 µg/mL)
[7]; simulated gastric fluid
  solubility thermodynamic at 24 h: 97.7 µM (≈ 25.4 µg/mL)
[8]; simulated intestinal fluid
  solubility thermodynamic at 24 h: 58.9 µM (≈ 15.3 µg/mL)
[13]
  solubility thermodynamic: 97.7 µM (≈ 25.4 µg/mL)

## Cc1cnc(NC(=O)C2=C(O)c3ccccc3S(=O)(=O)N2C)s1 [MELOXICAM]
[9]; buffer
  solubility thermodynamic at 4 h: 11.5 µM (≈ 4.03 µg/mL)
[10]; buffer
  solubility thermodynamic at 4 h: 35.5 µM (≈ 12.5 µg/mL)
[5]; simulated gi fluid
  solubility thermodynamic at 4 h: 1.41 µM (≈ 0.496 µg/mL)
[6]; simulated gi fluid
  solubility thermodynamic at 4 h: 22.9 µM (≈ 8.05 µg/mL)
[11]; buffer
  solubility thermodynamic at 24 h: 11 µM (≈ 3.85 µg/mL)
[12]; buffer
  solubility thermodynamic at 24 h: 21.9 µM (≈ 7.69 µg/mL)
[7]; simulated gi fluid
  solubility thermodynamic at 24 h: 0.0407 µM (≈ 0.0143 µg/mL)
[8]; simulated gi fluid
  solubility thermodynamic at 24 h: 28.8 µM (≈ 10.1 µg/mL)
[13]
  solubility thermodynamic: 2.29 µM (≈ 0.805 µg/mL)

## COCCOC(=O)C1=C(C)NC(C)=C(C(=O)OC(C)C)C1c1cccc([N+](=O)[O-])c1 (stereo not drawn) [NIMODIPINE]
[2]
  -log(solubility): 6.62
[9]; water
  solubility thermodynamic at 4 h: 4.79 µM (≈ 2 µg/mL)
[5]; simulated gastric fluid
  solubility thermodynamic at 4 h: 9.55 µM (≈ 4 µg/mL)
[6]; simulated intestinal fluid
  solubility thermodynamic at 4 h: 9.55 µM (≈ 4 µg/mL)
[11]; water
  solubility thermodynamic at 24 h: 4.07 µM (≈ 1.7 µg/mL)
[12]; PBS
  solubility thermodynamic at 24 h: 0.398 µM (≈ 0.167 µg/mL)
[7]; simulated gastric fluid
  solubility thermodynamic at 24 h: 10.7 µM (≈ 4.48 µg/mL)
[8]; simulated intestinal fluid
  solubility thermodynamic at 24 h: 10 µM (≈ 4.18 µg/mL)
[13]
  solubility thermodynamic: 5.75 µM (≈ 2.41 µg/mL)

## CO[C@H]1/C=C/O[C@@]2(C)Oc3c(C)c(O)c4c(O)c(c(/C=N/N5CCN(C)CC5)c(O)c4c3C2=O)NC(=O)/C(C)=C\C=C\[C@H](C)[C@H](O)[C@@H](C)[C@@H](O)[C@@H](C)[C@H](OC(C)=O)[C@@H]1C [RIFAMPIN]
[1]
  -log(solubility): 4.31
[2]
  -log(solubility): 4.01
[3]
  -log(solubility): 4.21
[4]
  -log(solubility): 4.14
[5]; simulated gastric fluid
  solubility thermodynamic at 4 h: 97.7 µM (≈ 80.4 µg/mL)
[6]; simulated intestinal fluid
  solubility thermodynamic at 4 h: 97.7 µM (≈ 80.4 µg/mL)
[7]; simulated gastric fluid
  solubility thermodynamic at 24 h: 95.5 µM (≈ 78.6 µg/mL)
[8]; simulated intestinal fluid
  solubility thermodynamic at 24 h: 72.4 µM (≈ 59.6 µg/mL)
